In this assay the target is T1, GATA4–NKX2-5 transcriptional synergy (Mus musculus, UniProt P42582+Q08369).
T1 construct: expressed in transfected cells; host or cells: COS-1
Description: GATA4–NKX2-5 transcriptional synergy luciferase reporter assay (3xNKE reporter, COS-1 cells). In kind it is cell-based. Particulars: for activity at 3 µM / activity at 10 µM: COS-1; for Synergy (% of control) Mean ± SD: 10 μM, COS-1 cells, 24 h.

[1] abbreviates: 3 µM, luciferase reporter activity, % of control.
[2] abbreviates: 3 µM, luciferase reporter activity relative to control.
Setting [3] is: 10 µM, luciferase reporter activity relative to control.

T1 sequence (Q08369 whole entry): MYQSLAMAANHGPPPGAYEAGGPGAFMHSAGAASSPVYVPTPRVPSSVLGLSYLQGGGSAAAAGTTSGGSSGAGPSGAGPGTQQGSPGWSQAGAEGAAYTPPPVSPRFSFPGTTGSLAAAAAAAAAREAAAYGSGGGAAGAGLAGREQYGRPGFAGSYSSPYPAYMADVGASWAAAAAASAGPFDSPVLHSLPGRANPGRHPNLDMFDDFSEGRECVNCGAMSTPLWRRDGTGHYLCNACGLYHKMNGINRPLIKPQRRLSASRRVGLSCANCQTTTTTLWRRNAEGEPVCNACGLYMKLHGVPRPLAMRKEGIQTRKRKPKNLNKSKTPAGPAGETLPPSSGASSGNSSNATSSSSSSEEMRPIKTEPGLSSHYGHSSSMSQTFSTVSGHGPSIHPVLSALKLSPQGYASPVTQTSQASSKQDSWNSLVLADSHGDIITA
T1 sequence (P42582 whole entry): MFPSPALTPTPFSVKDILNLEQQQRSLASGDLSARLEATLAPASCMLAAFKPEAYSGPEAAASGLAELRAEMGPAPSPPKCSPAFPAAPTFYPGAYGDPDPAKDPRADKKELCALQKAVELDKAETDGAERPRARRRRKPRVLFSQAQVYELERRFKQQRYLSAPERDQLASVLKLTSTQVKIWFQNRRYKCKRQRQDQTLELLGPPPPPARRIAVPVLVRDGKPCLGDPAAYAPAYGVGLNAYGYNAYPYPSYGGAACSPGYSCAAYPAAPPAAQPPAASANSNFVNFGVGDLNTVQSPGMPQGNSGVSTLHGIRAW

Regarding `CCN(CC)c1ccc(NC(=O)c2c(-c3ccccc3)noc2C)cc1` [Compound 1, N-[4-(Diethylamino)phenyl]-5-methyl-3-phenylisoxazole-4-carboxamide], the activity at 3 µM under setting [1] was 73.7%.
On to `Cc1onc(-c2ccccc2)c1C(=O)N(C1=NC(C)CS1)c1ccc(Cl)cc1` (stereo not shown) [Compound 2], for which the “Synergy (% of control) Mean ± SD” value is on record as 170 % of control. Under setting [1], the activity at 3 µM worked out at 130%. Besides, under “10 µM, luciferase reporter activity, % of control”, the activity at 10 µM turned out to be 166%.
Consider `Cc1onc(-c2ccccc2)c1COc1ccc(C(=O)OCCC#N)cc1` [Compound 35a, 2-Cyanoethyl 4-[(5-Methyl-3-phenylisoxazol-4-yl)methoxy]benzoate], for which the activity at 3 µM under setting [2] was 27.5%.
In the case of `CCN(CC)c1ccc(NC(=O)c2cnsc2)cc1` [Compound 47s], under setting [2], the activity at 3 µM came out at 66.9%.
Take `CCC(=O)N(Cc1ccc(N(CC)CC)cc1)c1c(-c2ccccc2)noc1C` [Compound 58]: the activity at 10 µM under setting [3] came out at 22.3%.
For the molecule `COc1ccc(-c2cc(NC(=O)c3ccc(C(C)(C)C)cc3)n[nH]2)cc1` [Compound 72], the “effect on GATA4–NKX2-5 transcriptional synergy (in words)” value is recorded as “inhibition potency”. In addition, under setting [2], the activity at 3 µM turned out to be 66%. Moreover, the activity at 10 µM under setting [3] was 49.5%.
Consider “N-[4-(Diethylamino)phenyl]-3-methyl-5-(4-methyl-1,2,3-thiadiazol-5-yl)isoxazole-4-carboxamide [Compound 47c]”, for which the “Synergy (% of control) Mean ± SD” value is recorded as 24 ± 0.9 % of control. Moreover, under setting [2], the Synergy.3µM amounted to 45.37. Moreover, the Synergy.10µM under setting [3] came to 23.55.

Source of the values: PMC7076710, “Synthesis, Identification, and Structure–Activity Relationship Analysis of GATA4 and NKX2-5 Protein–Protein Interaction Modulators” (Journal of Medicinal Chemistry, 2019).
